# How the values were obtained:
# [1] = dog, in vivo
# Protocol: The derived pharmacokinetic parameters included: 1, time for the maximum concentration to be reduced by 1/2 (t-1/2); 2, area under the plasma concentration curve (AUC); 3, maximum plasma concentration (C-max); 4, time to reach C-max (t-max); 5, mean resident time (MRT); and 6, percent of recovery of administered H3 dose in urine in 72 hours (U%).
# Here, determination was made of the release characteristics of the DIMAC synthetic resin matrix system embodied with the drug urapidil fumerate (UPD) following oral administration to conscious dogs, in an identical procedure to that described in EXAMPLE 4.
# The UPD dose administered in DIMAC matrix was 10 mg/kg, and the same dose was used in the control solution.
# [2] = dog, in vivo, po
# Protocol: Approximately 75 uCi of isotopically labelled DTZ or UPD was blended into their respective slurry prior to filling the gelatin capsule. The isotopically labelled compositions were allowed to set-up prior to rejoining the filled upper and lower capsule compartments. Curing proceeded overnight, with animal dosing performed at 8:00 a.m. the following morning. The control DIMAC matrix samples without drug were prepared in an identical manner.
# Six conscious dogs, three males and three females, one of each sex in three treatment groups were used in this study. The oral dose of DTZ was 30 mg/kg, while that for UPD was 10 mg/kg.
# Blood samples were drawn at 0-time immediately prior to dosing, and at 0.5, 1.0, 2.0, 4.0, 6.0, 8.0, 24, and 32 hours after oral administration of the three test preprations. One ml of plasma, suitably prepared was counted for 5-minutes for level of radioactivity (dpm).
Substance,magnitude of delayed and extended duration release indices compared with EXAMPLE 3 [1],percent change of t1/2 of DIMAC from solution control [1],statistical significance of change over solution control [1],percent change of U % (recovery of administered dose in urine in 72 hours) of DIMAC from solution control ([1]; 4320 min),percent of dose released from DIMAC matrix during the 8-hour period [2],time of peak plasma radioactivity ([2]; 10 mg/kg) [h]
urapidil fumerate [DIMAC matrix UPD],far less,+40%,"statistically significant change in C-max, t-max, MRT, and t-1/2",+8%,–,–
urapidil fumerate [UPD],–,–,–,–,at least 50%,2
